Experimental findings from US20210267240A1, “PHOTODETERIORATION INHIBITOR, BEVERAGE COMPRISING THE SAME, AND METHOD FOR INHIBITING PHOTODETERIORATION” (Mitsubishi Gas Chemical Company, Inc., priority 2018, published 2021) are described below.

The nature of the data set: Light irradiation storage test of aqueous pyrroloquinoline quinone disodium salt solution in a transparent PET container, HPLC recovery. In kind it is physicochemical. As to conditions: used alone, without combination partner. How it is done: HPLC conditions: Shimadzu LC-2010 Column: YMC-Pack ODS-A Detection wavelength: 259 nm Mobile phase: 30 mM acetic acid-70 mM ammonium acetate Column temperature: 40° C. Light irradiation apparatus: A plant incubator CLH-301 manufactured by Tomy Seiko Co., Ltd. Light irradiation conditions: 30° C. and 20,000Lx All the contents of Volvic that is a commercially available PET bottle beverage, were removed and the container was washed with water. This transparent container was used as a storage container. 5 to 500 mg of BioPQQ was dissolved in 500 g of water, and the relationship between the concentration and the photodeterioration of BioPQQ was examined. First, a mixture of pyrroloquinoline quinone disodium salt and water was added to the storage container, shaken well, and then submitted to ultrasonication for 1 minute to dissolve the salt. The pH was 3.5. The prepared aqueous solution of pyrroloquinoline quinone disodium salt was stored under the above light irradiation conditions. The concentration of pyrroloquinoline quinone was analyzed by HPLC 5 days after the light irradiation. […] 20 mg of BioPQQ was dissolved in 500 g of water ([…]) in the same manner as described above. To this aqueous solution, 100 mg of Red No. 2 was further added (Example A1). […]

`O=C1O[C@H]([C@@H](O)CO)C(O)=C1O` [ascorbic acid]: the “photodeterioration inhibition effect (in words)” value was “has a photodeterioration inhibition effect”.
